We go through nine compounds from the NIST ThermoML archive (doi:10.1021/acs.jced.6b00355).

For series [1] the following is noted: Crystal; DTA.
Series [2] can be described thus: Molar enthalpy of transition or fusion. Particulars: Crystal; DSC.

Structures are written as SMILES. Numbers after ± are expanded uncertainties.

Consider `CCCCCCCCCCCCCCCC(=O)O` [hexadecanoic acid], for which the Normal melting temperature in series [1] is 62.8 ± 0.7 °C. The “Molar enthalpy of transition or fusion” value in series [2] came out at 13.3 ± 0.359 kcal/mol.

Consider `CCCCCCCCCCCCCCCC` [hexadecane], for which the Normal melting temperature in series [1] came to 18.2 ± 0.7 °C.

Turning to `CCCCCCCCCCCCCCCCCC(=O)O` [octadecanoic acid], in series [1], the Normal melting temperature turned out to be 70.0 ± 0.7 °C. Moreover, in series [2], the “Molar enthalpy of transition or fusion” value is 15.1 ± 0.406 kcal/mol.

For the compound `CCCCCCCCCCCCCCCC(=O)OCC(COC(=O)CCCCCCCCCCCCCCC)OC(=O)CCCCCCCCCCCCCCC` [1,2,3-propanetriyl tri(hexadecanoate)], the Normal melting temperature in series [1] came to 67.6 ± 0.7 °C. For the same compound, the “Molar enthalpy of transition or fusion” value in series [2] was determined as 43.3 ± 1.24 kcal/mol.

Consider `CCCCCCCCCCCCCC(=O)O` [tetradecanoic acid], for which the Normal melting temperature in series [1] came out at 54.5 ± 0.7 °C. In series [2], the “Molar enthalpy of transition or fusion” value is 10.7 ± 0.263 kcal/mol.

For `CCCCCCCCCCCC(=O)O` [dodecanoic acid], the Normal melting temperature in series [1] turned out to be 44.2 ± 0.7 °C. Besides, in series [2], the “Molar enthalpy of transition or fusion” value was found to be 8.99 ± 0.213 kcal/mol.

Turning to `CCCCCCCCCCCCCC(=O)OCC(COC(=O)CCCCCCCCCCCCC)OC(=O)CCCCCCCCCCCCC` [1,2,3-propanetriyl tri(tetradecanoate)], in series [1], the Normal melting temperature turned out to be 58.0 ± 0.7 °C. Besides, in series [2], the “Molar enthalpy of transition or fusion” value was found to be 36.7 ± 1.48 kcal/mol.

As to `CCCCCCCCCCCC(=O)OCC(COC(=O)CCCCCCCCCCC)OC(=O)CCCCCCCCCCC` [1,2,3-propanetriyl tridodecanoate], in series [1], the Normal melting temperature stood at 48.8 ± 0.7 °C. Further, the “Molar enthalpy of transition or fusion” value in series [2] amounted to 30.4 ± 0.598 kcal/mol.

Regarding `CCCCCCCCCCCCCCCCCC(=O)OCC(COC(=O)CCCCCCCCCCCCCCCCC)OC(=O)CCCCCCCCCCCCCCCCC` [glycerol trioctadecanoate], the Normal melting temperature in series [1] is 73.5 ± 0.7 °C. The “Molar enthalpy of transition or fusion” value in series [2] came to 46.7 ± 2.06 kcal/mol.
